Key:
[1] = molecular target: PDGFRβ (Homo sapiens, UniProt P09619); test: Cellular autophosphorylation assay; assay type: cell-based
[2] = molecular target: Flt-4 (Homo sapiens, UniProt P35916); test: Flt-4 autophosphorylation ELISA, transfected COS cells; assay type: cell-based; parameters: expressed in transfected cells; host or cells: COS cells; conditions: read-out: Cellular IC50, autophosphorylation
Protocol: The Flt-4 autophosphorylation ELISA utilized COS cells. Cells were seeded at 200,000 cells per well in 6-well plates in DMEM with 10% FBS and grown at 5% CO2 and 37° C. After 24 h growth, cells were transfected with 1 μg/well Flt-4 cDNA, using 3 μl FuGENE-6 (Roche). […] The cell monolayer was washed twice with cold PBS and harvested by scraping into 150 μl ice-cold lysis buffer. Cell lysates were centrifuged at 13,000 g for 15 min, diluted 1:10 in ice-cold PBS, and transferred to clear Streptavidin plates (Pierce) coated with anti-human […] (Flt-4) biotinylated goat IgG (2 μg/well, R&D Biosciences). After washing, anti-Flag M2 mouse IgG-HRP (Sigma 1 to 10,000 dilution) or anti phospho-tyrosine rabbit IgG-HRP (Zymed, 61-5820, 1:10,000) was used to detect total Flt-4 and phosphorylated Flt-4.

[3] = molecular target: T1, Neurokinin, NK1 (Homo sapiens, UniProt P25103); test: NovaScreen assay; assay type: binding; conditions: read-out: Inhibition, 10 μM XL-647
T1 construct: NovaScreen
T1 sequence (P25103 whole entry): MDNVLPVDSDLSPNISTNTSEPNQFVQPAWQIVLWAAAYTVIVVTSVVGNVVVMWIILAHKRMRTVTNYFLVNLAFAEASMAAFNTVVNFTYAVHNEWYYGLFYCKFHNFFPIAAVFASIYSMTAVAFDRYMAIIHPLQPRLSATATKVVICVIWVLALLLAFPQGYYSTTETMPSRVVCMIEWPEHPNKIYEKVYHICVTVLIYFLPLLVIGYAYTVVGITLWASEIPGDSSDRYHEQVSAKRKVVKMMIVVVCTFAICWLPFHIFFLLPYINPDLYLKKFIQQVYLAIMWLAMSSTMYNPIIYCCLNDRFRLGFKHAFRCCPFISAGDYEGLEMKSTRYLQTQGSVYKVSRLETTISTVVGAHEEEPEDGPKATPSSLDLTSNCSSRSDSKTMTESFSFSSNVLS

[4] = molecular target: EphA2 (Homo sapiens, UniProt P29317); test: EphA2 autophosphorylation ELISA, PC-3 cells; assay type: cell-based; conditions: read-out: Cellular IC50, autophosphorylation
Protocol: The EphA2 autophosphorylation ELISA utilized PC-3 (ATCC) cells. Cells were seeded at 2.5×10^4 cells/well onto 96-well microtiter plates (Costar 3904), in DMEM (Cellgro) containing 10% FBS (Heat-Inactivated, Hyclone), 1% penicillin-streptomycin (Cellgro), and 1% NEAA solution (Cellgro). The cells were then incubated at 37° C., 5% CO2 for 16 h. Growth media was replaced with serum-free DMEM and cells were incubated for an additional 24 hr. […] Negative control wells were not treated with growth factor. After treatment, media was removed, the cell monolayer washed with cold PBS and immediately lysed with cold lysis buffer. Lysates were centrifuged and incubated into 96-well streptavidin-coated plates (Pierce) coated with biotin-conjugated, mouse anti-phosphotyrosine, PY20 (2 μg/ml, Calbiochem). Plates were incubated with rabbit polyclonal anti-EphA2, C-20 (1:500, Santa Cruz Biotechnology, Inc), followed by secondary antibody (HRP-conjugated, goat anti-rabbit IgG, 1:1000 from Cell Signaling) and the addition of a luminol-based substrate solution. Plates were read with a Victor spectrophotometer (Wallac).

[5] = molecular target: T2, IGF1R (Homo sapiens, UniProt P08069); test: Radiometric 33P-phosphoryl transfer kinase assay; assay type: biochemical; conditions: ATP at Km
T2 construct: residues M954-C1367 of human insulin-like growth factor-I receptor, Proqinase GmbH; purchased Proqinase GmbH
T2 sequence (P08069 954-1367): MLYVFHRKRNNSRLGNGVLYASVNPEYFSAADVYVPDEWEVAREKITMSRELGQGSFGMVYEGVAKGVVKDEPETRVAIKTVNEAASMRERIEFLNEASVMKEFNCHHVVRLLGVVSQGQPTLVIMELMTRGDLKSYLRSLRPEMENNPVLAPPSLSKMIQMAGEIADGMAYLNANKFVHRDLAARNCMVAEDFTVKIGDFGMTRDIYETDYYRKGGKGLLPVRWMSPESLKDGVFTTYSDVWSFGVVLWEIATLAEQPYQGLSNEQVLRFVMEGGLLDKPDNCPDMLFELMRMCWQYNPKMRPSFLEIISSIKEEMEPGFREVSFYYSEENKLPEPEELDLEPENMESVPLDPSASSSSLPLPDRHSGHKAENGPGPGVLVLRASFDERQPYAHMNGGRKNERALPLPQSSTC
Protocol: (§1) Dose-response experiments were done using 10 different inhibitor concentrations in 384-well microtiter plates. The ATP concentration used for each assay was equivalent to the Km for each kinase. IC50 values were calculated by nonlinear regression analysis using the four-variable equation: Y=min+(max−min)/[1+([I]/IC50)N], where Y is the observed signal, [I] is the inhibitor concentration, min is the background signal in the absence of enzyme (0% enzyme activity), max is the signal in the absence of inhibitor (100% enzyme activity), IC50 is the inhibitor concentration required at 50% enzyme inhibition, and N represents the empirical Hill slope as a measure of cooperativity.
(§2) A radiometric ^33P-Phosphoryl transfer kinase assay was used to measure EphB4, insulin-like growth factor-I receptor (IGFR-1), and insulin receptor (IRK) activity. Reactions were performed in 384-well white, clear bottom, high-binding microtiter plates (Greiner). Plates were coated with 2 μg/well peptide substrate in a 50 μL volume. […] The coated plates were washed once with 50 μL assay buffer following overnight incubation at room temperature. Test compound and either 5 nmol/L EphB4 (residues E605-E890 of human EphB4 containing a six histidine NH2-terminal tag, expressed in a baculovirus expression system and purified using metal chelate chromatography), 4 nmol/L insulin-like growth factor-I receptor (residues M954-C1367 of human insulin-like growth factor-I receptor, Proqinase GmbH), or 15 nmol/L insulin receptor 1 (residues P948-S1343 of human insulin receptor 1, Proqinase) were combined with [^33P]g-ATP (5 μmol/L, 3.3 μCi/nmol) in a total volume of 20 μL. The reaction mixture was incubated at room temperature for 1.5 to 2.5 h and terminated by aspiration. The microtiter plates were subsequently washed six times with 0.05% Tween-PBS buffer. Scintillation fluid (50 μL/well) was added and incorporated ^33P was measured by liquid scintillation spectrometry using a MicroBeta scintillation counter (Perkin-Elmer).

[6] = molecular target: T3, EphB4 (Homo sapiens, UniProt P54760); test: Radiometric 33P-phosphoryl transfer kinase assay; assay type: biochemical; conditions: ATP at Km
T3 construct: residues E605-E890 of human EphB4 containing a six histidine NH2-terminal tag; His6 (N); made in house; host or cells: baculovirus expression system
T3 sequence (P54760 605-890): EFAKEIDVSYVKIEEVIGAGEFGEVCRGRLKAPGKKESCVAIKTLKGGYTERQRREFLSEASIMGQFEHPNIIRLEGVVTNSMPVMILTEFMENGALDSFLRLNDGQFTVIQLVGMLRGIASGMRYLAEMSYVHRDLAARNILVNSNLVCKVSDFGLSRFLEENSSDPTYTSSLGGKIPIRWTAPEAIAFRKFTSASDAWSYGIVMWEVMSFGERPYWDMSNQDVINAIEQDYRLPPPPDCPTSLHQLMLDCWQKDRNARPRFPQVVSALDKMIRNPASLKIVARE
Protocol: as §1, §2

[7] = molecular target: T4, InsR (Homo sapiens, UniProt P06213); test: Radiometric 33P-phosphoryl transfer kinase assay; assay type: biochemical; conditions: ATP at Km
T4 construct: residues P948-S1343 of human insulin receptor 1, Proqinase; purchased Proqinase
T4 sequence (P06213 987-1382): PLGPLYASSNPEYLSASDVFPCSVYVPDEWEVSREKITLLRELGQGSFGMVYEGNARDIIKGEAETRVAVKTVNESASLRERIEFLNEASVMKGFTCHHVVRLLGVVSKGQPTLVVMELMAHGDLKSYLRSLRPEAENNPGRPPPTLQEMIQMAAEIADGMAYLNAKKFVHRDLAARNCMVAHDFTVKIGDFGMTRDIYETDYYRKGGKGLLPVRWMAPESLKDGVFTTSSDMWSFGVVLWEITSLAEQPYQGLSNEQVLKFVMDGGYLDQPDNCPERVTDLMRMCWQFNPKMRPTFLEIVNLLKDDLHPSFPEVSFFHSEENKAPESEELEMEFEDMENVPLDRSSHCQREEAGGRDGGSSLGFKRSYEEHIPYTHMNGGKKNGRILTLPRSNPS
Protocol: as §1, §2

[8] = molecular target: T5, Neurokinin, NK2 (NKA) (Human Recombinant) (Homo sapiens, UniProt P21452); test: NovaScreen assay; assay type: binding; conditions: read-out: Inhibition, 10 μM XL-647
T5 construct: NovaScreen
T5 sequence (P21452 whole entry): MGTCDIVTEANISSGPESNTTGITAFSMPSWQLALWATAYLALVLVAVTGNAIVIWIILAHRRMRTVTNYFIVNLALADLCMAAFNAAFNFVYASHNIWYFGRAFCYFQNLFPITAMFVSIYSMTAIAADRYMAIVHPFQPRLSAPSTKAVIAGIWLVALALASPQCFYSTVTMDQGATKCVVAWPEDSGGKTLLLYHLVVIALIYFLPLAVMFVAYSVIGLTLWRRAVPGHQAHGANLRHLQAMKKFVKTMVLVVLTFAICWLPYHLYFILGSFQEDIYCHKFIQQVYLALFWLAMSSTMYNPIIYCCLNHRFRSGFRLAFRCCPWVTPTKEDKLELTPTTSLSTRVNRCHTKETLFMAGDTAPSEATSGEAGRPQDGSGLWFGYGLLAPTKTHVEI

[9] = molecular target: T6, FGFR1 (Homo sapiens, UniProt P11362); test: AlphaScreen kinase assay; assay type: biochemical
T6 construct: cytoplasmic; GST-His6 (N); purchased ProQinase
T6 sequence (P11362 398-822 limits assumed): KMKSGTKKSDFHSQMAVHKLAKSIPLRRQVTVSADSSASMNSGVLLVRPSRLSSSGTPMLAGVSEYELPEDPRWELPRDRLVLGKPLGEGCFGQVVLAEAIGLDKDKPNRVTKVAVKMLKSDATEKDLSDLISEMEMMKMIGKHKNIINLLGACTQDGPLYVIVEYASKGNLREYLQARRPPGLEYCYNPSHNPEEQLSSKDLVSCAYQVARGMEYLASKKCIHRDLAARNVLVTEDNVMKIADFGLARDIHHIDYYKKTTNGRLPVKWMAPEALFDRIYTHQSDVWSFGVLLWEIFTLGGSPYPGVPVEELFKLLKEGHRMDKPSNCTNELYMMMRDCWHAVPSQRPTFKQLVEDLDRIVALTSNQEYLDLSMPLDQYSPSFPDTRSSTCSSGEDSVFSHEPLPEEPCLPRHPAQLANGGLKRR
Protocol: (§3) An AlphaScreen tyrosine kinase assay was used to measure ErbB2 and Flt-4 activity. Donor beads coated with streptavidin and acceptor beads coated with PY100 anti-phosphotyrosine antibody (Perkin-Elmer) were used. Biotinylated poly(Glu,Tyr) 4:1 was used as the substrate. Substrate phosphorylation was measured by luminescence following donor-acceptor bead addition followed by complex formation. Test compound, 3 μmol/L ATP, 3 nmol/L biotinylated poly(Glu,Tyr) 4:1, and 1 nmol/L ErbB2 (residues Q679-V1255 of human ErbB2, Proqinase) or Flt-4 (residues D725-R1298 of human Flt-4, Proqinase) were combined in a volume of 20 μL Assay Buffer (20 mM TrisHCl, pH 7.5, 10 mM MgCl2, 3 mM MnCl2, 1 mM DTT, 0.01% Triton) in a 384-well white, medium-binding microtiter plate (Greiner). Reaction mixtures were incubated for 1 h at room temperature. Reactions were quenched by addition of 10 μL of 15 to 30 μg/mL AlphaScreen bead suspension containing 75 mmol/L HEPES (pH 7.4), 300 mmol/L NaCl, 120 mmol/L EDTA, 0.3% bovine serum albumin, and 0.03% Tween 20. After 2 to 16 h of incubation at room temperature, plates were read using an AlphaQuest reader (Perkin-Elmer).
(§4) Further screening was performed using the biochemical assay methods of Example 2. Additional description of the components and concentrations are summarized in Table 8, Table 9, and Table 10, below.

[10] = molecular target: T7, Fyn (Homo sapiens, UniProt P06241); test: AlphaScreen kinase assay; assay type: biochemical
T7 construct: His6 (N); purchased Upstate Biotechnology
T7 sequence (P06241 whole entry): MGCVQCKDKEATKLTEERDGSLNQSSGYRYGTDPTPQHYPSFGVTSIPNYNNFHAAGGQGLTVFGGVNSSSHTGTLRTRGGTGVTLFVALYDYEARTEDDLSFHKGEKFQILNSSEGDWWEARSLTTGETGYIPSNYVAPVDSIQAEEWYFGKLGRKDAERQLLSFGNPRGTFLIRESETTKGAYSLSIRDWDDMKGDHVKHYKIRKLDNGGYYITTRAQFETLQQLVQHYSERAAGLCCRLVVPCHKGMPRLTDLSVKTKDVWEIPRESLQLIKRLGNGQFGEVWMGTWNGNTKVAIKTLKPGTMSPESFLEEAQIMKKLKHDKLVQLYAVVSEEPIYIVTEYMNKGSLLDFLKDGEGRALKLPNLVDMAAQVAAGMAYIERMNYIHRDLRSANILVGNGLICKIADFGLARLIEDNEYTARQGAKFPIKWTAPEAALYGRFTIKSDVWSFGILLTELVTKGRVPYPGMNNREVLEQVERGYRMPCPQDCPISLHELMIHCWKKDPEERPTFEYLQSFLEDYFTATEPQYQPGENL
Protocol: as §3, §4

[11] = Clinical safety data, 159 subjects with cancer; conditions: human, in vivo

Sequence of Flt-4 (P35916 25-1363): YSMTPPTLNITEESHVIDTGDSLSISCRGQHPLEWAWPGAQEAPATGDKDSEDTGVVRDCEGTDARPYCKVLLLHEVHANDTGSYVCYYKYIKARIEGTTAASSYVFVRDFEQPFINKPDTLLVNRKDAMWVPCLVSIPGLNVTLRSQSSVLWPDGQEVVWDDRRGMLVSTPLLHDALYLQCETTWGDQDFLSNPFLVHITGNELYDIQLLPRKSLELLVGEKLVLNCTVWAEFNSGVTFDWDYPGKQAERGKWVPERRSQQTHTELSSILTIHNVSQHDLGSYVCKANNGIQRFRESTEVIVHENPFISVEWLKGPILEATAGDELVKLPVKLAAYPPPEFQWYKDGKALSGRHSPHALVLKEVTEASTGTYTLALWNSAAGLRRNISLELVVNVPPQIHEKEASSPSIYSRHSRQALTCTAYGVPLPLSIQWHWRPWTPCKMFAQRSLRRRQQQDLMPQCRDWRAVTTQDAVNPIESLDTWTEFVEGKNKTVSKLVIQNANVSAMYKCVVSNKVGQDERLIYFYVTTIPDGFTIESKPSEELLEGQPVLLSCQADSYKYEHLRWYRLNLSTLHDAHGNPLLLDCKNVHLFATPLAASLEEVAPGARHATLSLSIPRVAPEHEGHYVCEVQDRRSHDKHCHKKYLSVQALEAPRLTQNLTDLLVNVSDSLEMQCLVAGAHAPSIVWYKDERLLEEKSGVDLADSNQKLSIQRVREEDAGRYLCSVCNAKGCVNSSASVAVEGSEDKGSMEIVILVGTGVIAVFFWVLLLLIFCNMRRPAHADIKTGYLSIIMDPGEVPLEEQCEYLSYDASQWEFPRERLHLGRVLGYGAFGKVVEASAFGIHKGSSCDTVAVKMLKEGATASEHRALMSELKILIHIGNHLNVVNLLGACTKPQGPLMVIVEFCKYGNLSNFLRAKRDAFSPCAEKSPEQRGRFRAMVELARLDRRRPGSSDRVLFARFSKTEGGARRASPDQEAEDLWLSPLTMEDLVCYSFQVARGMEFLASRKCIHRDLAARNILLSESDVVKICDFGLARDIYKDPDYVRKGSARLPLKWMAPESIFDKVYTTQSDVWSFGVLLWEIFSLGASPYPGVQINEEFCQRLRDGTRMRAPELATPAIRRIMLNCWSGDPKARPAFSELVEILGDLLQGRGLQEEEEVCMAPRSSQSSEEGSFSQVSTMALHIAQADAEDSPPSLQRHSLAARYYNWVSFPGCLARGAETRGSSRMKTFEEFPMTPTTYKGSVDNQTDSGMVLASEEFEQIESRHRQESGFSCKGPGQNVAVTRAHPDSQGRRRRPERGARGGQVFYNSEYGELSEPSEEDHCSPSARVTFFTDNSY
Sequence of PDGFRβ (P09619 33-1106, species assumed): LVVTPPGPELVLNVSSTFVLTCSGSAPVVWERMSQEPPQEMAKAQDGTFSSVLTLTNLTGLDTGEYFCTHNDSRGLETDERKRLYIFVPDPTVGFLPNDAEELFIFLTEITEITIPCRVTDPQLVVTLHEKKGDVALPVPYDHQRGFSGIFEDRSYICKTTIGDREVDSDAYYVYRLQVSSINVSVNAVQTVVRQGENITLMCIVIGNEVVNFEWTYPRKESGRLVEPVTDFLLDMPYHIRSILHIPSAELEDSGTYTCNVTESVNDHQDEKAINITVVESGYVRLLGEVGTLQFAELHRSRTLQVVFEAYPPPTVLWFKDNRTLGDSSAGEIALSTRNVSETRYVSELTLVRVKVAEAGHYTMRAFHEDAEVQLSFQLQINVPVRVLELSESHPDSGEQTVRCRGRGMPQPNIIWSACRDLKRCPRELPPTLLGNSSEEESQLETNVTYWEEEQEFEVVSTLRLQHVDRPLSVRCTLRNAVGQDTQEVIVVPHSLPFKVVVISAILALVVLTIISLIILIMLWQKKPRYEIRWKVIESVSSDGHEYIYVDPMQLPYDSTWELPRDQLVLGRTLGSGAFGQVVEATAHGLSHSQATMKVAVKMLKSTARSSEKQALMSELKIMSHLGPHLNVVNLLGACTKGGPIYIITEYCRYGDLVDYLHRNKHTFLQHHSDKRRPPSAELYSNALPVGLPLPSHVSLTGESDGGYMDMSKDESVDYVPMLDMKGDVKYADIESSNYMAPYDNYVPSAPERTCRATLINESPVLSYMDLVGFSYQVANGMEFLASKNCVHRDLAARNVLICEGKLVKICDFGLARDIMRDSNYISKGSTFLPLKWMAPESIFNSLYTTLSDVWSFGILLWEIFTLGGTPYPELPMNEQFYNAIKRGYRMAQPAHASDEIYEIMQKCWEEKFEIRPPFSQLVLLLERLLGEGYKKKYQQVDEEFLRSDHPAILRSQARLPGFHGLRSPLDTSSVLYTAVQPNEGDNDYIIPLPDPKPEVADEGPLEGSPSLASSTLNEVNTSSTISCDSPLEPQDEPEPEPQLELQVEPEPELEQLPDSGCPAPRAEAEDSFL

COc1cc2c(Nc3ccc(Cl)c(Cl)c3F)ncnc2cc1OC[C@@H]1C[C@@H]2CN(C)C[C@@H]2C1 [XL-647, N-(3,4-dichloro-2-fluorophenyl)-7-({[(3aR,5r,6aS)-2-methyloctahydrocyclopenta[c]pyrrol-5-yl]methyl}oxy)-6-(methyloxy)quinazolin-4-amine]
IC50 [1]: > 1200 nM
IC50 [2]: 90 nM
inhibition at 10 µM [3]: 20.4%
IC50 [4]: 1100 nM
IC50 [5]: > 10000 nM
IC50 [6]: 1.4 ± 0.2 nM
IC50 [7]: > 26000 nM
inhibition at 10 µM [8]: 34.2%
IC50 [9]: 855 ± 96.3 nM
IC50 [10]: 41 ± 8.1 nM
deaths attributed to study drug [11]: no deaths attributed to study drug

Source: patent publication US9364479B2, “Use of a receptor-type kinase modulator for treating polycystic kidney disease” (SYMPHONY EVOLUTION, INC., priority 2010, dated 2016)
